Source: patent publication US20210253595A1, “2-Aminopyrimidine Derivative and Preparation Method and Use Thereof” (Etern Biopharma (Shanghai) Co., Ltd., priority 2018, published 2021)

Columns and labels:
[1] = test system: 2HG of fibrosarcoma cell line HT1080 expressing IDH1 mutant IDH1-R132C; assay: Inhibition of 2HG of fibrosarcoma cell line HT1080; type: cell-based; conditions: Homo sapiens, HT-1080; HT1080 cells, 48 hours with compound, 2HG in cell supernatant; read-out: HT1080 2HG inhibitory IC50
Method: In this experiment, the inhibitory activity of the compound of the disclosure on the concentration level of 2HG of the fibrosarcoma cell line HT1080 was determined by the following method.
The cells were digested with trypsin and inoculated into a 24 well cell culture plate with a density of 10000 cells/well. The cells were cultured in a 5% CO2 cell incubator at 37° C. After overnight culture, the test compound was added to the cells. The final concentration of DMSO was 0.1%, and DMSO was used as control. The plate was then placed in a cell incubator and cultured for 48 hours.
Detection of 2HG: 2-HG was measured by PicoProbe™ D-2-Hydroxyglutarate (D2HG) Assay Kit of BioVision. 500 uL cell supernatant was taken from each well and added to a 10 kD centrifuge column, 12000 g, and centrifuged for 10 minutes to remove the effect of enzyme activity. […] IC50 value was calculated by GraphPad Prism software.
The inhibition rate of the sample was obtained by the following formula: […]
IC50 value was calculated by GraphPad Prism software.

IDH1 R132C = IDH1 R132C (Homo sapiens, UniProt O75874, R132C); assay: Effect on IDH1 R132C enzyme activity (NADPH consumption, diaphorase/resazurin fluorescence); type: biochemical; conditions: 80 ng IDH1 R132C, α-KG 2 mM, NADPH 20 μM, 60 min preincubation
Method: (§1) Test method: The enzyme activity of IDH1 converting α-KG to 2HG was measured by the consumption of NADPH. After the enzymatic reaction finished, the amount of residual NADPH can be reflected by fluorescence signal generated by the addition of catalytically excessive diphhorase and reazurin.
(§2) 50 μL mixed liquid of substrate α-KG and NADPH (final concentration of substrate α-KG was 2 mM, final concentration of NADPH was 20 μM), and the plate was incubated in dark for 60 min at room temperature. Detection reaction: 50 μL 1×detection buffer diluted 0.01 unit diabase and 30 μM resazurin were added into each well, and the mixture was incubated in dark at room temperature for 10 min. […] IC50 value was calculated by GraphPad Prism software.

IDH1 R132H = IDH1 R132H (Homo sapiens, UniProt O75874, R132H); assay: Effect on IDH1 R132H enzyme activity (NADPH consumption, diaphorase/resazurin fluorescence); type: biochemical; conditions: 100 ng IDH1 R132H, α-KG 1 mM, NADPH 20 μM, 60 min preincubation
Method: as §1
as §2, with “α-KG was 1 mM, final” for “α-KG was 2 mM, final”, “and the mixture was incubated” for “and the plate was incubated”

Sequence of IDH1 R132H (O75874 whole entry R132H): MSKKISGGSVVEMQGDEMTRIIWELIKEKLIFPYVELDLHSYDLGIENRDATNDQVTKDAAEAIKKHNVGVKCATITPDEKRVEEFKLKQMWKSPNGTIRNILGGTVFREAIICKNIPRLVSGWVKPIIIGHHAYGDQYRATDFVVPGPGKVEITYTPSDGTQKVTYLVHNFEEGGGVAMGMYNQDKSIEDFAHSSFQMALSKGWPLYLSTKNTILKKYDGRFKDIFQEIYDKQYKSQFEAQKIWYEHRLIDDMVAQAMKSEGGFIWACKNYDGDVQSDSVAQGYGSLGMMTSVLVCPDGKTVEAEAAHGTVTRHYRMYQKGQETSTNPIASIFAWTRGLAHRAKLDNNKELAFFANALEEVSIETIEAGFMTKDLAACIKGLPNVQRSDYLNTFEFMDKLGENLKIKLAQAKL
Sequence of IDH1 R132C (O75874 whole entry R132C): as the sequence (O75874 whole entry R132H) above, with H132C counted along it

| IC50 [1] | IC50 (IDH1 R132C) | IC50 (IDH1 R132H) | Structure (SMILES) |
| --- | --- | --- | --- |
| 25 nM |  |  | N#Cc1ccnc(N2C(=O)CC[C@H]2C(=O)N(c2cncc(F)c2)[C@H](C(=O)NC2CC(F)(F)C2)c2ccccc2Cl)c1 [AG120, reference compound] |
| 60 nM | < 50 nM | < 50 nM | C[C@H](Nc1nccc(N2C(=O)OC[C@@H]2[C@H](C)F)n1)c1ncn2c1COc1cc(Cl)ccc1-2 [Compound 1, (R)-3-(2-((S)-1-(7-chloro-4H-benzo[b]imidazo[1,5-d][1,4]oxazin-3-yl)ethylamino)pyrimidin-4-yl)-4-((S)-1-fluoroethyl)oxazolidin-2-one] |
| 12 nM | < 50 nM | < 50 nM | C[C@H](Nc1nccc(N2C(=O)OC[C@@H]2[C@H](C)F)n1)c1ncn2c1COc1cc(C(F)(F)F)ccc1-2 [Compound 2, (R)-4-((S)-1-fluoroethyl)-3-(2-(((S)-1-(7-trifluoromethyl-4H-benzo[b]imidazo[1,5-d][1,4]oxazin-3-yl)ethyl)amino)pyrimidin-4-yl)oxazolidin-2-one] |
| 13 nM | < 50 nM | < 50 nM | CC(C)[C@H]1COC(=O)N1c1ccnc(N[C@@H](C)c2ncn3c2CCc2cc(C(F)(F)F)ccc2-3)n1 [Compound 3, (S)-4-isopropyl-3-(2-(((S)-1-(7-trifluoromethyl-4,5-dihydroimidazo[1,5-a]quinolin-3-yl)ethyl)amino)pyrimidin-4-yl)oxazolidin-2-one] |
| 54 nM | < 50 nM | < 50 nM | C[C@H](Nc1nccc(N2C(=O)OC[C@@H]2[C@H](C)F)n1)c1ncn2c1CCc1cc(Cl)ccc1-2 [Compound 4, (R)-3-(2-(((S)-1-(7-chloro-4,5-dihydroimidazo[1,5-a]quinolin-3-yl)ethyl)amino)pyrimidin-4-yl)-4-((S)-1-fluoroethyl)oxazolidin-2-one] |
| 16 nM | < 50 nM | < 50 nM | C[C@H](Nc1nccc(N2C(=O)OC[C@@H]2[C@H](C)F)n1)c1ncn2c1CCc1cc(C(F)(F)F)ccc1-2 [Compound 5, (R)-4-((S)-1-fluoroethyl)-3-(2-(((S)-1-(7-trifluoromethyl-4,5-dihydroimidazo[1,5-a]quinolin-3-yl)ethyl)amino)pyrimidin-4-yl)oxazolidin-2-one] |
| 20 nM | < 50 nM | < 50 nM | C[C@H](Nc1ncc(F)c(N2C(=O)OC[C@@H]2[C@H](C)F)n1)c1ncn2c1CCc1cc(C(F)(F)F)ccc1-2 [Compound 6, (R)-3-(5-fluoro-2-(((S)-1-(7-trifluoromethyl-4,5-dihydroimidazo[1,5-a]quinolin-3-yl)ethyl)amino)pyrimidin-4-yl)-4-((S)-1-fluoroethyl)oxazolidin-2-one] |
| 35 nM | < 50 nM | < 50 nM | C[C@H](Nc1nc(Cl)cc(N2C(=O)OC[C@@H]2[C@H](C)F)n1)c1ncn2c1CCc1cc(C(F)(F)F)ccc1-2 [Compound 7, (R)-3-(6-chloro-2-(((S)-1-(7-trifluoromethyl-4,5-dihydroimidazo[1,5-a]quinolin-3-yl)ethyl)amino)pyrimidin-4-yl)-4-((S)-1-fluoroethyl)oxazolidin-2-one] |
| 10 nM | < 50 nM | < 50 nM | C[C@H](Nc1nccc(N2C(=O)OC[C@@H]2[C@H](C)F)n1)c1ncn2c1sc1cc(C(F)(F)F)ccc12 [Compound 8, (R)-4-((S)-1-fluoroethyl)-3-(2-(((S)-1-(6-trifluoromethylbenzo[d]imidazo[5,1-b]thiazol-3-yl)ethyl)amino)pyrimidin-4-yl)oxazolidin-2-one] |
| 45 nM | < 50 nM | 50 to 500 nM | CC(C)[C@H]1COC(=O)N1c1ccnc(N[C@@H](C)c2ncn3c2CCCc2cc(C(F)(F)F)ccc2-3)n1 [Compound 9, (S)-4-isopropyl-3-(2-(((S)-1-(8-trifluoromethyl-5,6-dihydro-4H-benzo[f]imidazo[1,5-a]azepin-3-yl)ethyl)amino)pyrimidin-4-yl)oxazolidin-2-one] |
|  | 50 to 500 nM | 50 to 500 nM | CC1Cc2c([C@H](C)Nc3nccc(N4C(=O)OC[C@@H]4[C@H](C)F)n3)ncn2-c2ccc(C(F)(F)F)cc21 (stereo partly drawn) [Compound 10, (4R)-4-((S)-1-fluoroethyl)-3-(2-(((1S)-1-(5-methyl-7-trifluoromethyl-4,5-dihydroimidazo[1,5-a]quinolin-3-yl)ethyl)amino)pyrimidin-4-yl)oxazolidin-2-one] |
|  | < 50 nM | 50 to 500 nM | C[C@H](Nc1nccc(N2C(=O)OC[C@@H]2[C@H](C)F)n1)c1ncn2c1CCc1cc(F)ccc1-2 [Compound 11] |
| 24 nM | < 50 nM | < 50 nM | CC(C)[C@H]1COC(=O)N1c1ccnc(N[C@@H](C)c2ncn3c2CSc2cc(C(F)(F)F)ccc2-3)n1 [Compound 12, (S)-4-isopropyl-3-(2-(((S)-1-(7-trifluoromethyl-4H-benzo[b]imidazo[1,5-d][1,4]thiazin-3-yl)ethyl)amino)pyrimidin-4-yl)oxazolidin-2-one] |
| 35 nM | < 50 nM | < 50 nM | C[C@H](Nc1nccc(N2C(=O)OC[C@@H]2[C@H](C)F)n1)c1ncn2c1CCCc1cc(C(F)(F)F)ccc1-2 [Compound 13, (R)-4-((S)-1-fluoroethyl)-3-(2-(((S)-1-(8-trifluoromethyl-5,6-dihydro-4H-benzo[f]imidazo[1,5-a]azepin-3-yl)ethyl)amino)pyrimidin-4-yl)oxazolidin-2-one] |
|  | 50 to 500 nM | 50 to 500 nM | CC1Cc2cc(C(F)(F)F)ccc2-n2cnc([C@H](C)Nc3nccc(N4C(=O)OC[C@@H]4[C@H](C)F)n3)c21 (stereo partly drawn) [Compound 14, (4R)-4-((S)-1-fluoroethyl)-3-(2-(((1S)-1-(4-methyl-7-trifluoromethyl-4,5-dihydroimidazo[1,5-a]quinolin-3-yl)ethyl)amino)pyrimidin-4-yl)oxazolidin-2-one] |
|  | 50 to 500 nM | 50 to 500 nM | CC1Oc2cc(C(F)(F)F)ccc2-n2cnc([C@H](C)Nc3nccc(N4C(=O)OC[C@@H]4[C@H](C)F)n3)c21 (stereo partly drawn) [Compound 15, (4R)-4-((S)-1-fluoroethyl)-3-(2-(((1S)-1-(4-methyl-7-trifluoromethyl-4H-benzo[b]imidazo[1,5-d][1,4]oxazin-3-yl)ethyl)amino)pyrimidin-4-yl)oxazolidin-2-one] |
|  | > 500 nM | > 500 nM | C[C@H](Nc1nccc(N2CC3(CC3)OC2=O)n1)c1ncn2c1CCc1cc(C(F)(F)F)ccc1-2 [Compound 19, (S)-6-(2-((1-(7-trifluoromethyl-4,5-dihydroimidazo[1,5-a]quinolin-3-yl)ethyl)amino)pyrimidin-4-yl)-4-oxa-6-azaspiro[2.4]heptan-5-one] |
|  | < 50 nM | < 50 nM | C[C@H](Nc1nccc(N2C(=O)OC[C@@H]2[C@H](C)F)n1)c1ncn2c1COc1cc(F)ccc1-2 [Compound 24, (R)-3-(2-(((S)-1-(7-fluoro-4H-benzo[b]imidazo[1,5-d][1,4]oxazin-3-yl)ethyl)amino)pyrimidin-4-yl)-4-((S)-1-fluoroethyl)oxazolidin-2-one] |
|  | 50 to 500 nM | 50 to 500 nM | COc1ccc2c(c1)OCc1c([C@H](C)Nc3nccc(N4C(=O)OC[C@@H]4[C@H](C)F)n3)ncn1-2 [Compound 25, (R)-4-((S)-1-fluoroethyl)-3-(2-(((S)-1-(7-methoxy-4H-benzo[b]imidazo[1,5-d][1,4]oxazin-3-yl)ethyl)amino)pyrimidin-4-yl)oxazolidin-2-one] |
|  | 50 to 500 nM | 50 to 500 nM | C[C@H](Nc1nccc(N2C(=O)OC[C@@H]2[C@H](C)F)n1)c1ncn2c1COc1cc(C#N)ccc1-2 [Compound 27, 3-((S)-1-((4-((R)-4-((S)-1-fluoroethyl)-2-oxyoxazolidin-3-yl)pyrimidin-2-yl)amino)ethyl)-4H-benzo[b]imidazo[1,5-d][1,4]oxazin-7-nitrile] |
|  | 50 to 500 nM | < 50 nM | C[C@H](Nc1nccc(N2C(=O)OC[C@@H]2[C@H](C)F)n1)c1ncn2c1CCc1c(Cl)cccc1-2 [Compound 29, (R)-3-(2-(((S)-1-(6-chloro-4,5-dihydroimidazo[1,5-a]quinolin-3-yl)ethyl)amino)pyrimidin-4-yl)-4-((S)-1-fluoroethyl)oxazolidin-2-one] |
